Laboratory results reported in patent publication US11845770B2, “Ascaroside derivatives and methods of use” (California Institute of Technology, priority 2019, dated 2023).
“Also recorded” adds a separate entry of the source.

Key:
Format in all cases: cell-based
[1] = tested on: THP1 human macrophage cells; assay: Stimulation of THP-1 cells, IL-6 at 6 or 36 hours post stimulation; conditions: THP1-derived macrophages, IFNγ + LPS, 0.1 to 500 μM, FIG. 9
Method: Human immortalized monocytic THP-1 cells were maintained in phenol red free RPMI 1640 medium containing 10% (v/v) fetal bovine serum (FBS), 2 mM L-glutamine, penicillin (100 units/mL), streptomycin (100 μg/mL), amphotericin B (2.5 μg/mL), and 50 μM beta-mercaptoethanol (BME) at 37° C. with 5% (v/v) CO2. THP-1 cells were seeded in 1 mL of THP-1 medium (cell culture medium containing 10% (v/v) FBS, 2 mM L-glutamine, penicillin (100 units/mL), streptomycin (100 μg/mL), amphotericin B ([…]), and 50 μM BME)/well at a density of 1×10^6 cells/mL in six-well plates. Cells were differentiated by adding 10, 50, or 100 nM phorbol 12-myristate 13-acetate (PMA) to each well before incubating cells for 5.5 h at 37° C. with 5% (v/v) CO2. Without removing the media, different concentrations (either 0, 0.1, 1.0, 10, 100, 200, or 500 μM) of the compound were added to each well. Cells were stimulated, within 30 min by adding 20 ng/mL interferon gamma (IFNγ) and 100 ng/mL lipopolysaccharide (LPS) to each well. Following stimulation, the THP-1 cells were incubated for 6 or 36 hours at 37° C. with 5% (v/v) CO2. Supernatant was collected and stored at −80° C. until use.
IL-6 released from supernatants collected at 6 or 36 hours post stimulation with IFNγ and LPS were measured using the AlphaLISA Human IL-6 detection kit.

[2] = tested on: EPC2 human esophageal keratinocytes; assay: Stimulation of EPC2-hTERT human esophageal keratinocytes with Poly(I:C); conditions: 24 hours; for percent inhibition relative to Stimulated of TSLP expression: FIG. 19A; for percent inhibition relative to Stimulated of IL-6 expression: FIG. 19B; for percent inhibition relative to Stimulated of MCP-1 expression: FIG. 19C
Method: EPC2-hTERT (EPC2) cells were maintained in supplemented keratinocyte serum-free medium (KSFM) with 0.09 mM calcium chloride containing epidermal growth factor (5 ng/mL), bovine pituitary extract ([…]), penicillin (100 units/mL), and streptomycin ([…]) (ThermoFisher #17005042) at 37° C. with 5% (v/v) CO2. EPC2 cells were seeded in 12-well plates at 0.55×10^6 cells per well in supplemented KSFM at 37° C. with 5% (v/v) CO2 and after 6 hours the old media is removed and changed with fresh media. After overnight incubation, the old media is changed to supplemented KSFM containing 1.8 mM calcium chloride and incubated for 72 hours at 37° C. with 5% (v/v) CO2. After the old media is removed and fresh supplemented KSFM containing 1.8 mM calcium chloride is added, the cells are pre-treated with different concentrations of compounds (0, 1, 10, 100, 500, 1000 μM) for 1 hour prior to stimulation. To stimulate the cells, Poly (I:C) (Tocris #4287) is added to the wells at […] concentration without removing the media and incubated for 24 hours at 37° C. with 5% (v/v) CO2. Supernatants are collected in Eppendorf tubes, centrifuged in a microfuge at maximum speed for 10 minutes at 4° C., and the centrifuged supernatants stored at −80° C. until quantitative detection assays are performed. Human Interleukin-6 (IL-6), Monocyte Chemoattractant Protein-1 (MCP-1), and Thymic stromal lymphopoietin (TSLP) released from supernatants collected post stimulation were measured using the AlphaLISA detection kit for human IL-6, MCP-1, and TSLP, respectively.

[3] = tested on: human naïve T cells; assay: Stimulation of blood derived naïve T cells with Der p1 (house dust mite) antigen; conditions: at 100 μM; human T cells, Der p1 antigen; FIG. 15
Method: Naïve T cells from peripheral blood samples were collected and processed using MACSxpress® Whole Blood Pan T Cell Isolation Kit (Miltenyi Biotec), according to the manufacturer's protocol. Isolated naïve T cells were cultured in RPMI medium supplemented with 5% Fetal Bovine Serum (FBS) at 37° C. with 5% (v/v) CO2. T cells were seeded in 24 well plates at a density of 0.5×10^6 cells per well. The cells were pre-treated with the compounds (0, 0.1, 1.0, 10, 100 μM) for 1 hour prior to stimulation. Cells were stimulated with […] of Dermatophagoides pteronyssinus (Der p1) antigen. After 48 hours, fresh […] of Der p1 was added and continued incubating for a further 72 hours at 37° C. with 5% (v/v) CO2. Overall T cells were stimulated with […] of Der p1 antigen for 5 days before supernatants were collected and stored at −80° C. until quantitative detection assays are performed.
Human Interleukin-4 (IL-4), Interleukin-5 (IL-5), Interleukin-6 (IL-6), Interleukin-8 (IL-8), Interleukin-13 ([…]), Interleukin-23 (IL-23), and Interferon gamma (IFNγ) released from supernatants collected post stimulation were measured using Human Magnetic Luminex® Assay Kit. Human Transforming Growth Factor beta (TGFβ) was measured using an Enzyme-Linked Immunosorbent Assay (ELISA)-based analysis.

[4] = tested on: BEAS-2B human lung epithelial cells; assay: Stimulation of BEAS-2B human lung epithelial cells, cytokine expression; conditions: 20 ng/mL IL-1β, 48 h; for percent inhibition relative to Stimulated of Eotaxin expression: FIG. 12, FIG. 13
Method: BEAS-2B cells were maintained in Bronchial Epithelial Cell Growth Basal Medium (BEBM) containing all the recommended supplements for the Bronchial Epithelial Cell Growth Medium (BEGM; Lonza #CC-4175) and allowed to attain approximately 70% confluency with media changed every 2-3 days at 37° C. with 5% (v/v) CO2. Tissue culture flasks/vessels were pre-coated with a mixture of 0.01 mg/mL fibronectin (Sigma), 0.03 mg/ml bovine collagen type I (Sigma) and 0.01 mg/mL bovine serum albumin dissolved in the BEBM. BEAS-2B cells were seeded with 0.5 ml of 1×10^6 cells/mL in BEGM per well on 24-well plates and incubated overnight at 37° C. with 5% (v/v) CO2. The cells are pre-treated with different concentrations of compounds (0, 1.0, 10, 100, 1000 μM) for 1 hour prior to stimulation. To stimulate the cells, 10 ng/mL of Interleukin-1 beta (IL-1β), 10 ng/mL of Lipopolysaccharides (LPS), or 20 ng/mL of IL-1$ is added to the wells without removing the media and incubated for 48 hours at 37° C. with 5% (v/v) CO2. Supernatants were collected and stored at −80° C. until quantitative detection assays are performed. Human Eotaxin, Monocyte Chemoattractant Protein-1 (MCP-1), Interleukin-6 (IL-6), Interleukin-25 (IL-25), Interleukin-33 (IL-33), Thymic stromal lymphopoietin (TSLP), and Granulocyte-Macrophage Colony-Stimulating Factor (GM-CSF) released from supernatants collected post stimulation were measured using Human Magnetic Luminex® Assay Kit. Human CCL5/RANTES was measured using an Enzyme-Linked Immunosorbent Assay (ELISA)-based analysis.

C[C@H](CCC(O)CC(=O)OC(C)(C)C)O[C@@H]1O[C@@H](C)[C@H](O)C[C@H]1O (stereo partly drawn) [Compound 9, tert-butyl (6R)-6-(((2R,3R,5R,6S)-3,5-dihydroxy-6-methyltetrahydro-2H-pyran-2-yl)oxy)-3-hydroxyheptanoate]
percent inhibition relative to Control of IL-6 levels secreted [1]: inhibited IL-6 expression in statistically significant, dose-dependent manner

C[C@H](CC/C=C/C(=O)OCc1ccccc1)O[C@@H]1O[C@@H](C)[C@H](O)C[C@H]1O [Compound 4, benzyl (2E,6R)-6-{[(2R,3R,5R,6S)-3,5-dihydroxy-6-methyloxan-2-yl]oxy}hept-2-enoate]
percent inhibition relative to Stimulated of TSLP expression ([2]; increasing concentrations): statistically significant inhibition; also recorded: completely inhibited | percent inhibition relative to Stimulated of IL-6 expression ([2]; increasing concentrations): inhibited IL-6 expression in statistically significant, dose-dependent manner | percent inhibition relative to Stimulated of MCP-1 expression ([2]; increasing concentrations): inhibited MCP-1 expression in statistically significant manner; also recorded: only showed inhibition at the highest 100 μM concentration | percent inhibition relative to Stimulated of IL-6 expression [3]: statistically significant inhibition | percent inhibition relative to Stimulated of IL-8 expression [3]: statistically significant inhibition | percent inhibition relative to Stimulated of TNFα expression [3]: statistically significant inhibition

C[C@H](CC/C=C/C(=O)OCc1cccnc1)O[C@@H]1O[C@@H](C)[C@H](O)C[C@H]1O [Compound 5, pyridin-3-ylmethyl (2E,6R)-6-{[(2R,3R,5R,6S)-3,5-dihydroxy-6-methyloxan-2-yl]oxy}hept-2-enoate]
percent inhibition relative to Control of IL-6 levels secreted [1]: inhibited IL-6 expression in statistically significant, dose-dependent manner

C[C@H](CC/C=C/C(=O)OCc1ccncc1)O[C@@H]1O[C@@H](C)[C@H](O)C[C@H]1O [Compound 6, pyridin-4-ylmethyl (2E,6R)-6-{[(2R,3R,5R,6S)-3,5-dihydroxy-6-methyloxan-2-yl]oxy}hept-2-enoate]
percent inhibition relative to Stimulated of IL-33 expression ([4]; FIG. 12): statistically significant inhibition | percent inhibition relative to Stimulated of TSLP expression ([4]; FIG. 12): statistically significant inhibition | percent inhibition relative to Stimulated of Eotaxin expression [4]: statistically significant inhibition | percent inhibition relative to Stimulated of IL-25 expression ([4]; compound concentration series, FIG. 12): robust inhibition of IL-25 expression at 1 mM concentration | percent inhibition relative to Stimulated of IL-25 expression, level at which it topped out ([4]; even at 100 μM, FIG. 12): 60% | percent inhibition relative to Control of IL-6 levels secreted [1]: inhibited IL-6 expression in statistically significant, dose-dependent manner

C[C@@H]1O[C@@H](OCCC/C=C/C(=O)OC(C)(C)C)[C@H](O)C[C@H]1O [Compound 11, tert-butyl (E)-6-(((2R,3R,5R)-3,5-dihydroxy-6-methyltetrahydro-2H-pyran-2-yl)oxy)hex-2-enoate]
percent inhibition relative to Stimulated of MCP-1 expression ([2]; increasing concentrations): inhibited MCP-1 expression in statistically significant, dose-dependent manner | percent inhibition relative to Control of IL-6 levels secreted [1]: inhibited IL-6 expression in statistically significant, dose-dependent manner

C[C@H](CCC1CC1C(=O)OC(C)(C)C)O[C@@H]1O[C@@H](C)[C@H](O)C[C@H]1O (stereo partly drawn) [Compound 2, tert-butyl 2-[(3R)-3-{[(2R,3R,5R,6S)-3,5-dihydroxy-6-methyloxan-2-yl]oxy}butyl]cyclopropane-1-carboxylate]
percent inhibition relative to Stimulated of IL-6 expression ([2]; increasing concentrations): inhibited IL6 expression in statistically significant manner | percent inhibition relative to Stimulated of MCP-1 expression ([2]; increasing concentrations): inhibited MCP-1 expression in statistically significant manner; also recorded: only showed inhibition at the highest 100 μM concentration | percent inhibition relative to Stimulated of IL-6 expression ([2]; at 100 μM): robust inhibition | percent inhibition relative to Stimulated of Eotaxin expression [4]: statistically significant, complete inhibition | percent inhibition relative to Control of IL-6 levels secreted [1]: inhibited IL-6 expression in statistically significant, dose-dependent manner

C[C@H](CC/C=C/C(=O)N1CCCC1)O[C@@H]1O[C@@H](C)[C@H](O)C[C@H]1O [Compound 13, (R,E)-6-(((2R,3R,5R,6S)-3,5-dihydroxy-6-methyltetrahydro-2H-pyran-2-yl)oxy)-1-(pyrrolidin-1-yl)hept-2-en-1-one]
percent inhibition relative to Stimulated of TSLP expression ([2]; increasing concentrations): inhibited TSLP expression in statistically significant manner; also recorded: robust blocking | percent inhibition relative to Stimulated of MCP-1 expression ([2]; increasing concentrations): inhibited MCP-1 expression in statistically significant manner | percent inhibition relative to Stimulated of MCP-1 expression ([2]; increasing concentrations, listed as compound 13): robust blocking of MCP-1 expression starting at 1 mM | percent inhibition relative to Control of IL-6 levels secreted [1]: inhibited IL-6 expression in statistically significant, dose-dependent manner

CC(C)OC(=O)/C=C/CC[C@@H](C)O[C@@H]1O[C@@H](C)[C@H](O)C[C@H]1O [Compound 8, isopropyl (R,E)-6-(((2R,3R,5R,6S)-3,5-dihydroxy-6-methyltetrahydro-2H-pyran-2-yl)oxy)hept-2-enoate]
percent inhibition relative to Control of IL-6 levels secreted [1]: inhibited IL-6 expression in statistically significant, dose-dependent manner
